Test results published in doi:10.1101/2024.08.25.609621 (bioRxiv, 2024).
Like-named read-outs stand apart in the source and are kept apart here.

Legend:
[1] = target: SARS-CoV-2 NSP3 macrodomain (Mac1) (Severe acute respiratory syndrome coronavirus 2, UniProt P0DTD1); assay: biochemical; type: binding
[2] = target: SARS-CoV-2 NSP3 macrodomain (Mac1), P43 crystal form (Severe acute respiratory syndrome coronavirus 2, UniProt P0DTD1); type: binding; settings: for binding by crystal soaking: P43 crystal form, repeated attempts, in words
[3] = dose-response, read-out: SARS CoV-2 macrodomain HTRF assay: IC50
[4] = dose-response, read-out: SARS CoV-2 macrodomain HTRF assay: Ki
[5] = from SARS CoV-2 macrodomain HTRF assay
[6] = ligand modeling in Mac1 crystal structure
[7] = stereoisomer(s) modeled in Mac1 crystal structure
[8] = Single dose, 200 μM, mean of three technical replicates, read-out: Average % competition
[9] = preliminary screen, compound at 200 μM, mean of 3-4 technical replicates, read-out: % competition in HTRF assay
[10] = ligand modeling in Mac1 crystal soak
[11] = SARS CoV-2 macrodomain HTRF assay
[12] = SARS CoV-2 macrodomain HTRF assay, read-out: Ki
[13] = stereoisomer(s) of ligand modeled in Mac1 crystal structure
[14] = Dose-response, SARS CoV-2 macrodomain HTRF assay, read-out: IC50

## C[C@H]1CC[C@H](CO)N(c2ncnc3[nH]ccc23)C1 (racemic) [AVI-4063]
[1]; [3]
  IC50: 56 µM
[1]; [4]
  Ki: 52 µM
[1]; [5]
  Ligand efficiency (binding enery per heavy atom): 0.33
[2]; [6]
  Number of isomers bound: 1

## C[C@@H]1CCN(c2ncnc3[nH]ccc23)[C@H](CO)C1 (racemic) [AVI-4064]
[1]; [3]
  IC50: 100 µM
[1]; [4]
  Ki: 93 µM
[1]; [5]
  Ligand efficiency (binding enery per heavy atom): 0.31
[2]; [6]
  Number of isomers bound: 2
[2]; [7]
  Isomers modeled: RS,SR

## Nc1ncnc2c1ncn2[C@@H]1O[C@H](COP(=O)(O)OP(=O)(O)OC[C@H]2O[C@@H](O)[C@H](O)[C@@H]2O)[C@@H](O)[C@H]1O.[Na].[Na] [ADP-ribose, reference compound]
[1]; HTRF dose-response fit, Mac1
  Hill slope: 1.1
[2]; crystal structure with Mac1 determined (TRUE)
  X-ray crystal structure: TRUE

## O=C(O)C1CCCN1S(=O)(=O)c1cccc2nsnc12 (stereo not drawn) [AVI-2]
[1]; [8]
  inhibition at 200 µM: 23%
[1]; [9]
  inhibition at 200 µM: 23%
[2]; [10]
  Number of isomers bound: 1

## c1ccc(-n2nnnc2CSc2nnc(NC3CC3)s2)cc1 [AVI-286]
[2]
  Isomers modeled: achiral
  Number of isomers bound: 1

## O=C(O)C(c1ccccc1)n1sc2ccccc2c1=O (stereo not drawn) [AVI-288]
[2]; [6]
  Number of isomers bound: 1

## COC1CCCN(S(=O)(=O)c2cc(Cl)cnc2N)C1 (stereo not drawn) [AVI-290]
[2]
  binding by crystal soaking: failed to observe binding

## CC(C)n1nnnc1SCc1c(C(=O)O)sc2cccc(F)c12 [AVI-291]
[2]; [6]
  Number of isomers bound: 1
[2]; [7]
  Isomers modeled: achiral

## Nc1ncc(Cl)cc1S(=O)(=O)N1CCCC(O)C1 (stereo not drawn) [AVI-295]
[2]
  binding by crystal soaking: failed to observe binding

## Nc1nnc(SCCn2c(=O)oc3ccccc32)s1 [AVI-296]
[2]
  Isomers modeled: achiral
  Number of isomers bound: 1

## CC1CC(C(=O)O)CCN1C(=O)c1ccc2c(c1)NC(=O)CO2 (stereo not drawn) [AVI-303]
[1]; [8]
  inhibition at 200 µM: < 10%
[1]; [9]
  inhibition at 200 µM: < 10%
[2]; [10]
  Number of isomers bound: 1

## OCC(Cc1ccccc1)Nc1ncnc2[nH]ccc12 (stereo not drawn) [AVI-313]
[1]; [11]
  Ligand efficiency (binding enery per heavy atom): 0.27
[1]; [12]
  Ki: 120 µM
[1]; read-out: HTRF IC50
  IC50: 130 µM
[2]; [10]
  Number of isomers bound: 2
[2]; [13]
  Isomers modeled: S,R

## O=C(Nc1ccsc1C(=O)O)c1ccc2c(c1)OCO2 [AVI-316]
[2]; [10]
  Number of isomers bound: 1
[2]; [13]
  Isomers modeled: achiral

## Cc1sc2ncnc(Sc3ccccc3C(=O)O)c2c1C [AVI-317]
[1]; [14]
  IC50: > 1000 µM
[2]; [10]
  Number of isomers bound: 1
[2]; [13]
  Isomers modeled: achiral,achiral

## Cc1c(C)n(Cc2ccccc2)c2ncnc(N)c12 [AVI-321]
[1]; [8]
  inhibition at 200 µM: 19%
[1]; [9]
  inhibition at 200 µM: 19%
[2]; [10]
  Number of isomers bound: 1
[2]; [13]
  Isomers modeled: achiral

## CC(CNC(=O)c1ccc2c(c1)CCC(=O)N2)C(=O)O (stereo not drawn) [AVI-328]
[1]; [11]
  Ligand efficiency (binding enery per heavy atom): 0.25
[1]; [12]
  Ki: 210 µM
[1]; read-out: HTRF IC50
  IC50: 220 µM
[2]; [10]
  Number of isomers bound: 2
[2]; [13]
  Isomers modeled: R,S

## Cc1ccc2c(c1)CC[C@@H](C(=O)Nc1nnc3n1CCCC3)O2 [AVI-329]
[2]
  Number of isomers bound: 1

## O=C1CCc2cc(C(=O)N3CC(C(=O)O)CCC34CCCC4)c(F)cc2N1 (stereo not drawn) [AVI-338]
[1]; [14]
  IC50: 800 µM
[1]; [11]
  Ligand efficiency (binding enery per heavy atom): 0.16
[1]; [12]
  Ki: 740 µM
[2]; [6]
  Number of isomers bound: 1

## Cc1cc2c(=O)n(CCN3C(=O)c4ccccc4S3(=O)=O)nnc2s1 [AVI-341]
[1]; [8]
  inhibition at 200 µM: 11%
[1]; [9]
  inhibition at 200 µM: 11%
[2]; [10]
  Number of isomers bound: 1
[2]; [13]
  Isomers modeled: achiral

## CNc1ccc(NS(=O)(=O)c2cc3cccc(C)c3s2)cn1 [AVI-345]
[1]; [8]
  inhibition at 200 µM: 18%
[1]; [9]
  inhibition at 200 µM: 18%
[2]; [6]
  Number of isomers bound: 1
[2]; [7]
  Isomers modeled: achiral

## CC1CCN(C(=O)c2ccc3c(c2)nc(CO)n3C)CC1C(=O)O (stereo not drawn) [AVI-348]
[1]; [8]
  inhibition at 200 µM: < 10%
[1]; [9]
  inhibition at 200 µM: < 10%
[2]; [10]
  Number of isomers bound: 1

## CC(C)(O)[C@H]1CCCN1c1ncnc2[nH]ccc12 [AVI-607, 2-[(2R)-1-{7H-Pyrrolo[2,3-d]pyrimidin-4-yl}pyrrolidin-2-yl]propan-2-ol]
[1]; binding energy per heavy atom
  Ligand efficiency: 0.41
[1]; [4]
  Ki: 4.7 µM
[1]; [5]
  Ligand efficiency (binding enery per heavy atom): 0.41
[1]; read-out: HTRF IC50
  IC50: 5.1 µM
[2]; [10]
  Number of isomers bound: 1
